Data taken from PMC4769034 (Journal of medicinal chemistry, 2015).
Values after ≈ are worked out from the molar mass of the structure shown.

Assays:
plasma leptin = conditions: 50 mg/kg by oral gavage for 3 weeks; cited from earlier work
[1] = tested on: Middle East respiratory syndrome coronavirus (MERS-Cov); conditions: cited from earlier work
[2] = cited from earlier work
[3] = no reference given; cited from earlier work
CYP450 enzymes = conditions: cited from earlier work
PKA = conditions: cited from earlier work
[4] = cited from earlier work; remark: listed apart in the source
MIA PaCa-2 cells = conditions: 10 mg/kg via i.p. injection for 3 weeks; cited from earlier work
PDEs = conditions: cited from earlier work
hERG = conditions: cited from earlier work
rickettsial infection = conditions: mouse, in vivo; cited from earlier work
[5] = tested on: pancreatic ductal adenocarcinoma (PDA) cells; conditions: cited from earlier work
[6] = Solubility in water by HPLC analysis
[7] = Solubility in ethanol by HPLC analysis; conditions: vs compound 1

In the case of `CC(C)(C)c1cc(C(=O)/C(C#N)=N/Nc2cccc(Cl)c2)no1` [Compound 1, 2-(5-tert-butylisoxazol-3-yl)-N′-(3-chlorophenyl)-2-oxoacetohy-drazonoyl cyanide], the plasma leptin (plasma leptin) is given as “significantly reduces plasma leptin”, the MERS-CoV viral yields [1] is given as “significantly reduce viral yields” and the toxicity to animals [2] is given as “low toxicity”. For the same compound, the membrane permeability [3] was “good membrane permeability”, the “inhibitory activity toward CYP450 enzymes” value (CYP450 enzymes) was “very weak inhibitory activities” and the “effect toward PKA” value (PKA) was “no effect”. For the same compound, the bioavailability [4] was “excellent bioavailability”, the “metastasis to the liver” value (MIA PaCa-2 cells) was “significantly decrease metastasis to the liver” and the “inhibitory effects on PDEs” value (PDEs) was “no significant inhibitory effects”. The “inhibitory activity toward hERG” value (hERG) was “very weak inhibitory activities”, the “survival after rickettsial infection” value (rickettsial infection) was “dramatically improved survival” and the “PDA cell migration and invasion” value [5] was “significant decrease”. The “effect on PDA cell proliferation and viability” value [5] was “no obvious effect”.

With `CC(C)(C)c1cc(C(=O)/C(C#N)=N/Nc2cc(C(F)(F)F)cc(C(F)(F)F)c2)no1` [Compound 25, N′-(3,5-Bis(trifluoromethyl)phenyl)-2-(5-tert-butylisoxazol-3-yl)-2-oxoacetohydrazonoyl Cyanide] the “fold improvement of solubility in water in comparison with 1” value ([6]; vs compound 1) was “approximately 70 fold”, the solubility at 24 h ([6]; water) was 418 ± 17.3 µg/mL (≈ 968 µM) and the “fold improvement of solubility in ethanol in comparison with 1” value [7] was roughly 10 fold.
